Square brackets hold non-standard residues; d marks the D form. Peptide text beside a SMILES is read from it.

The target in assay [1] is Mu opioid receptor-like OR2 (Danio rerio, UniProt B8JHS2). In words: Displacement of [3H]DPN from zebrafish mu opioid receptor expressed in HEK293 cell membranes after 1 hr by scintillation counting method.
Assay [2] addresses Opioid receptor, delta 1b (Danio rerio, UniProt B3DH72). In words: Displacement of [3H]DPN from zebrafish delta 1b opioid receptor expressed in HEK293 cell membranes after 4 hrs by scintillation counting method. (In general: Loss of bound radioactivity is the signal in a displacement assay; it reports binding, not function.)
Assay [3] has as its target Opioid receptor homologue (Danio rerio, UniProt A3QJX7). The experiment in a line: Displacement of [3H]DPN from zebrafish delta 1a opioid receptor expressed in HEK293 cell membranes after 1 hr by scintillation counting method.
For assay [4], the system named is Mus musculus. In words: Antinociceptive activity in C57BL6/J mouse assessed as analgesia at 5 mg/kg, ip measured after 30 mins by tail flick test (reference value: -7%). In kind it is functional.
Assay [5] deals with Mus musculus. In words: Antinociceptive activity in C57BL6/J mouse assessed as analgesia at 5 mg/kg, ip measured after 90 mins by tail flick test (reference value: 10%). Type of assay: functional. A general note: Hot-plate and tail-flick tests time the reaction to a heat stimulus.
Assay [6] relates to Mus musculus. The experiment in a line: Antinociceptive activity in C57BL6/J mouse assessed as analgesia at 8 mg/kg, ip measured after 90 mins by tail flick test (reference value: 10%). In kind it is functional.
Assay [7] concerns Mus musculus. In words: Antinociceptive activity in C57BL6/J mouse assessed as analgesia at 8 mg/kg, ip measured after 60 mins by tail flick test (reference value: 3%). In kind it is functional.
Assay [8] has as its system Mus musculus. In words: Antinociceptive activity in C57BL6/J mouse assessed as analgesia at 5 mg/kg, ip measured after 120 mins by tail flick test (reference value: -8%). In kind it is functional.
Assay [9] relates to Mus musculus. The experiment in a line: Antinociceptive activity in C57BL6/J mouse assessed as analgesia at 8 mg/kg, ip measured after 120 mins by tail flick test (reference value: -8%). In kind it is functional.
For assay [10], the system named is Mus musculus. In words: Antinociceptive activity in C57BL6/J mouse assessed as analgesia at 5 mg/kg, ip measured after 60 mins by tail flick test (reference value: 3%). In kind it is functional.
In assay [11] the test system is Mus musculus. In words: Antinociceptive activity in C57BL6/J mouse assessed as analgesia at 8 mg/kg, ip measured after 30 mins by tail flick test (reference value: -7%). Type of assay: functional.

Opioid receptor homologue, sequence (A3QJX7 whole entry): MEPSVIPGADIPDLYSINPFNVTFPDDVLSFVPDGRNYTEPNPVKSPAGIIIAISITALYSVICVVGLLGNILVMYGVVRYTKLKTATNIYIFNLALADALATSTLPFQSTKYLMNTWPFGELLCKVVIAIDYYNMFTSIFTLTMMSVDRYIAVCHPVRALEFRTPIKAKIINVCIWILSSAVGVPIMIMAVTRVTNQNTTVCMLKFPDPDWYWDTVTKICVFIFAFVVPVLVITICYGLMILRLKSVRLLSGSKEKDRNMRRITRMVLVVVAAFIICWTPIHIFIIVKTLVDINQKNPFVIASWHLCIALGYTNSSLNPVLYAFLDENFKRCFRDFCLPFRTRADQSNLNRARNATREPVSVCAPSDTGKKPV
Mu opioid receptor-like OR2, sequence (B8JHS2 whole entry): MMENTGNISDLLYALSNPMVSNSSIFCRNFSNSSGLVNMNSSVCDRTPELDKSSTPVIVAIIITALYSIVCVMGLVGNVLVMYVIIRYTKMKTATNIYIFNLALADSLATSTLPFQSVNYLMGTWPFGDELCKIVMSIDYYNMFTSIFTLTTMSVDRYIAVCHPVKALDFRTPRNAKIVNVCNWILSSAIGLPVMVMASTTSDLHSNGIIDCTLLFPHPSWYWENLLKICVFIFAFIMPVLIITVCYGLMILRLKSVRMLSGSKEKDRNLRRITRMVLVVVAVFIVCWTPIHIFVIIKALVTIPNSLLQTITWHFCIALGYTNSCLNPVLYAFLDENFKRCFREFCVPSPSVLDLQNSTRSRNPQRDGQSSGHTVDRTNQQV
Opioid receptor, delta 1b, sequence (B3DH72 whole entry): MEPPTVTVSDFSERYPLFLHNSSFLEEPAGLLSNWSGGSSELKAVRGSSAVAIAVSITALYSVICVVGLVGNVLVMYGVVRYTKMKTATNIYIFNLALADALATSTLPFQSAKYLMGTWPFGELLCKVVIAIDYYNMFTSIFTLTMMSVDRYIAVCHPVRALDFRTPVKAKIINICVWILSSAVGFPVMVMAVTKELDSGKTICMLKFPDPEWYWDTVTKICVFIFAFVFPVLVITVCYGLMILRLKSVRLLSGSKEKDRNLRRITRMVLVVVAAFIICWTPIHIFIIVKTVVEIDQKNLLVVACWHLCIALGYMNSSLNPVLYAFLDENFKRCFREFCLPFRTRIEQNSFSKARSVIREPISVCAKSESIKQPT

One may read the Ki as a measure of affinity in units of concentration, obtained from inhibition or displacement. A lower Ki goes with higher affinity. In the case of `CSCC[C@H](NC(=O)[C@H](Cc1ccccc1)NC(=O)CNC(=O)CNC(=O)[C@@H](N)Cc1ccc(O)cc1)C(=O)O`, the inhibitory constant (Ki) was 684 nM in assay [1] and 45 nM in assay [2].

Turning to `CSCC[C@@H](NC(=O)[C@@H](N)Cc1ccc(O)cc1)C(=O)NCC(=O)N[C@@H](Cc1ccccc1)C(=O)N1C[C@@H](O[C@H]2O[C@H](CO)[C@@H](O)[C@H](O)[C@@H]2O)C[C@H]1C(N)=O`, the Ki is 239 nM in assay [1], 609 nM in assay [3] and 536 nM in assay [2]. Besides, the Activity amounted to 40% in the assay with Mus musculus [4]; 50% in the assay with Mus musculus [5]; 35% in the assay with Mus musculus [6]; 62% in the assay on Mus musculus [7]; 40% with Mus musculus [8]; 45% with Mus musculus [9]. Also, the Activity is on record as 60% in the assay with Mus musculus [10] and 45% in the assay with Mus musculus [11].

For the compound `CSCC[C@@H](NC(=O)[C@@H](N)Cc1ccc(O)cc1)C(=O)NCC(=O)N[C@@H](Cc1ccccc1)C(=O)N1C[C@@H](O[C@@H]2O[C@H](CO)[C@@H](O)[C@H](O)[C@H]2O)C[C@H]1C(N)=O`, the Ki in [1] came to 313 nM; in assay [3], 389 nM; in assay [2] it was 159 nM.

Consider `CSCC[C@@H](NC(=O)[C@@H](N)Cc1ccc(O)cc1)C(=O)NCC(=O)N[C@@H](Cc1ccccc1)C(=O)N1C[C@@H](O[C@@H]2O[C@H](CO)[C@@H](O[C@H]3O[C@@H](CO)[C@H](O)[C@@H](O)[C@@H]3O)[C@H](O)[C@H]2O)C[C@H]1C(N)=O`, for which the results for the Ki in assay [1], in [3] and in assay [2] were 223 nM, 843 nM and 528 nM, respectively.

As for `CSCC[C@@H](NC(=O)[C@@H](N)Cc1ccc(O)cc1)C(=O)NCC(=O)N[C@@H](Cc1ccccc1)C(=O)N1C[C@@H](O[C@@H]2O[C@H](CO)[C@@H](O[C@H]3O[C@@H](CO)[C@@H](O)[C@@H](O)[C@@H]3O)[C@H](O)[C@H]2O)C[C@H]1C(N)=O`, the Ki in [1] was determined as 203 nM; in [3], 635 nM; in assay [2], 559 nM.

Take `CSCC[C@@H](NC(=O)[C@@H](N)Cc1ccc(O)cc1)C(=O)NCC(=O)N[C@@H](Cc1ccccc1)C(=O)N1C[C@@H](O[C@@H]2O[C@H](CO)[C@H](O)[C@H](O)[C@H]2O)C[C@H]1C(N)=O`: the Ki in assay [1] was 383 nM; in [3] it was 468 nM; in assay [2] it was 518 nM.

Regarding `CSCC[C@@H](NC(=O)[C@@H](N)Cc1ccc(O)cc1)C(=O)NCC(=O)N[C@@H](Cc1ccccc1)C(=O)N1CCC[C@H]1C(N)=O` (H-Y[dM]GFP-NH2), the Ki in assay [1] was found to be 269 nM; in assay [3], 566 nM; in [2], 256 nM.

For the compound `CN1CC[C@]23c4c5ccc(O)c4O[C@H]2[C@@H](O)C=C[C@H]3[C@H]1C5` [MORPHINE], the Activity with Mus musculus [4] is recorded as 30%; in the assay on Mus musculus [5], 45%; in the assay with Mus musculus [8], 30%; with Mus musculus [10], 51%.

The values are drawn from ChEMBL document CHEMBL3997848 (Bioorg Med Chem, 2017).
